Assay results as given in ChEMBL document CHEMBL1914411, “Synthesis of lipophilic dimeric C-7/C-7-linked ciprofloxacin and C-6/C-6-linked levofloxacin derivatives. Versatile in vitro biological evaluations of monomeric and dimeric fluoroquinolone derivatives as potential antitumor, antibacterial or antimycobacterial agents” (Eur J Med Chem, 2011).
In brackets after ≈: the same amount, converted by molar mass. Activity calls are given as the source filed them. How the calls were made is not given here.

Legend:
Staphylococcus aureus [1] = assay: Antimicrobial activity against multidrug-resistant Staphylococcus aureus isolate 1 after 18 to 24 hrs by broth microdilution method; assay type: functional
Staphylococcus aureus [2] = assay: Antimicrobial activity against multidrug-resistant Staphylococcus aureus isolate 2 after 18 to 24 hrs by broth microdilution method; assay type: functional
Staphylococcus aureus [3] = assay: Antimicrobial activity against methicillin-resistant Staphylococcus aureus ATCC 33592 after 18 to 24 hrs by broth microdilution method; assay type: functional
Pseudomonas aeruginosa = assay: Antimicrobial activity against Pseudomonas aeruginosa CIP 82.118 after 18 to 24 hrs by broth microdilution method; assay type: functional
Escherichia coli = assay: Antimicrobial activity against Escherichia coli CIP 53126 after 18 to 24 hrs by broth microdilution method; assay type: functional
Staphylococcus aureus [4] = assay: Antimicrobial activity against methicillin-resistant Staphylococcus aureus ATCC 33591 after 18 to 24 hrs by broth microdilution method; assay type: functional
MCF7 = assay: Antiproliferative activity against human MCF7 cells after 120 hrs by MTT asasy; assay type: functional, cell-based; settings: MCF7, 120 h
[5] = Antiproliferative activity against human U373MG cells after 120 hrs by MTT asasy; assay type: functional, cell-based, U-373MG ATCC; settings: U373 MG
Enterococcus hirae = assay: Antimicrobial activity against Enterococcus hirae CIP 5855 after 18 to 24 hrs by broth microdilution method; assay type: functional
[6] = test system: Mycobacterium tuberculosis; assay: Antimycobacterial activity against Mycobacterium tuberculosis H37Rv assessed as growth inhibition at 0.1 uM after 6 days by MTT colorimetric microassay; assay type: functional, organism-based
Staphylococcus aureus [7] = assay: Antimicrobial activity against Staphylococcus aureus CIP 4.83 after 18 to 24 hrs by broth microdilution method; assay type: functional
[8] = test system: Mycobacterium tuberculosis; assay: Antimycobacterial activity against Mycobacterium tuberculosis H37Rv assessed as growth inhibition at 10 uM after 6 days by MTT colorimetric microassay; assay type: functional; settings: 144 h, read-out: GI
[9] = test system: Mycobacterium tuberculosis; assay: Antimycobacterial activity against Mycobacterium tuberculosis H37Rv after 6 days by MTT colorimetric microassay; assay type: functional, organism-based; settings: 144 h
[10] = test system: Mycobacterium tuberculosis; assay: Antimycobacterial activity against Mycobacterium tuberculosis H37Rv assessed as growth inhibition at 1 uM after 6 days by MTT colorimetric microassay; assay type: functional; settings: 144 h, read-out: GI
Staphylococcus aureus [11] = assay: Ratio of ciprofloxacin MIC to compound MIC for multidrug-resistant Staphylococcus aureus isolate 1; assay type: functional
Staphylococcus aureus [12] = assay: Ratio of ciprofloxacin MIC to compound MIC for multidrug-resistant Staphylococcus aureus isolate 2; assay type: functional

SMILES	MBC (Staphylococcus aureus [1])	MIC (Staphylococcus aureus [1])	MBC (Staphylococcus aureus [2])	MIC (Staphylococcus aureus [2])	MBC (Pseudomonas aeruginosa)	MIC (Pseudomonas aeruginosa)	MBC (Escherichia coli)	MIC (Escherichia coli)	MBC (Staphylococcus aureus [4])	MIC (Staphylococcus aureus [4])	MBC (Enterococcus hirae)	MIC (Enterococcus hirae)	growth inhibition (GI) [6]	MBC (Staphylococcus aureus [7])	MIC (Staphylococcus aureus [7])	inhibition of growth at 10 µM [8]	MIC [9]	Ratio (Staphylococcus aureus [11])	Ratio (Staphylococcus aureus [12])	other results
O=C(O)c1cn(C2CC2)c2cc(N3CCN(C(=O)CCCCCCCCCCCCC(=O)N4CCN(c5cc6c(cc5F)c(=O)c(C(=O)O)cn6C5CC5)CC4)CC3)c(F)cc2c1=O	500 µM (≈ 443 µg/mL)	7.8 µM (≈ 6.9 µg/mL)	15.6 µM (≈ 13.8 µg/mL)	7.8 µM (≈ 6.9 µg/mL)	250 µM (≈ 221 µg/mL)	62.5 µM (≈ 55.3 µg/mL)	500 µM (≈ 443 µg/mL)	62.5 µM (≈ 55.3 µg/mL)	3.9 µM (≈ 3.45 µg/mL)	0.06 µM (≈ 0.0531 µg/mL)	500 µM (≈ 443 µg/mL)	125 µM (≈ 111 µg/mL)	inactive	1.9 µM (≈ 1.68 µg/mL)	≤ 0.12 µM	–	–	–	–	MBC (Staphylococcus aureus [3]): 0.97 µM (≈ 0.858 µg/mL); MIC (Staphylococcus aureus [3]): 0.12 µM (≈ 0.106 µg/mL); IC50 (MCF7): 5 µM; IC50 [5]: 5 µM
C[C@H]1COc2c(N3CCN(C)CC3)c(F)cc3c(=O)c(C(=O)NCCCCCCNC(=O)c4cn5c6c(c(N7CCN(C)CC7)c(F)cc6c4=O)OC[C@@H]5C)cn1c23	–	–	–	–	250 µM (≈ 201 µg/mL)	62.5 µM (≈ 50.2 µg/mL)	62.5 µM (≈ 50.2 µg/mL)	62.5 µM (≈ 50.2 µg/mL)	–	–	125 µM (≈ 100 µg/mL)	125 µM (≈ 100 µg/mL)	inactive	500 µM (≈ 401 µg/mL)	125 µM (≈ 100 µg/mL)	60%	> 10 µM	–	–	–
CCCCCCCC(=O)OCOC(=O)c1cn2c3c(c(N4CCN(C)CC4)c(F)cc3c1=O)OC[C@@H]2C	–	–	–	–	–	–	–	–	–	–	–	–	inactive	–	–	> 95%	2.5 µM (≈ 1.29 µg/mL)	–	–	inhibition of growth at 1 µM [10]: 74%; IC50 [9]: 1300 nM
CCCCCCCCCC(=O)OCC(=O)N1CCN(c2cc3c(cc2F)c(=O)c(C(=O)O)cn3C2CC2)CC1	15.6 µM (≈ 8.48 µg/mL)	7.8 µM (≈ 4.24 µg/mL)	15.6 µM (≈ 8.48 µg/mL)	7.8 µM (≈ 4.24 µg/mL)	250 µM (≈ 136 µg/mL)	31.2 µM (≈ 17 µg/mL)	15.6 µM (≈ 8.48 µg/mL)	15.6 µM (≈ 8.48 µg/mL)	0.48 µM (≈ 0.261 µg/mL)	0.24 µM (≈ 0.13 µg/mL)	15.6 µM (≈ 8.48 µg/mL)	7.8 µM (≈ 4.24 µg/mL)	inactive	≤ 0.97 µM	≤ 0.97 µM	> 95%	–	2	2	–
CCCCCC(=O)OCC(=O)N1CCN(c2cc3c(cc2F)c(=O)c(C(=O)O)cn3C2CC2)CC1	500 µM (≈ 244 µg/mL)	15.6 µM (≈ 7.61 µg/mL)	15.6 µM (≈ 7.61 µg/mL)	7.8 µM (≈ 3.8 µg/mL)	250 µM (≈ 122 µg/mL)	62.5 µM (≈ 30.5 µg/mL)	31.2 µM (≈ 15.2 µg/mL)	31.2 µM (≈ 15.2 µg/mL)	0.06 µM (≈ 0.0293 µg/mL)	0.03 µM (≈ 0.0146 µg/mL)	≤ 0.97 µM	≤ 0.97 µM	inactive	≤ 0.24 µM	≤ 0.03 µM	> 95%	–	2	2	–
